According to patent US20090047314A1, “MICROENCAPSULATION SYSTEMS AND APPLICATIONS OF SAME” (Centre National de la Recherche Scientifique (C.N.R.S.), priority 2003, published 2009):

Experiment: Encapsulation of molecule in the beads (determination by HPLC)
Assay type: physicochemical
Settings: α-cyclodextrin/soya oil beads
Protocol: The procedure is carried out as described in Example 1, but using, as molecules of interest, molecules that are active in therapeutics or that can be used in cosmetics, such as pigments or dyes, vitamin E acetate, benzophenone or isotretinoin.
In addition, it was shown that 30% of vitamin E acetate is encapsulated (determination by HPLC).

- fraction of molecule encapsulated in the beads: 30%
SMILES: CC(=O)Oc1c(C)c(C)c2c(c1C)CCC(C)(CCC[C@H](C)CCC[C@H](C)CCCC(C)C)O2 (stereo partly shown) [vitamin E acetate]
